One compound from patent US20190002555A1, “ANTIGEN-BINDING PROTEINS TO MARINOBUFAGENIN” (REGENERON PHARMACEUTICALS, INC., priority 2015, published 2019) can be followed below.

A word on the IC50: it is the point on the concentration scale where inhibition reaches its midpoint.

Where “and” joins values, the source holds several entries; their conditions need not be identical. Identical values can stand only once. Like-named read-outs stand apart in the source and are kept apart here.

The target in the assay is T1, Na+/K+ ATPase (Homo sapiens, UniProt P05023).
T1 construct: An in-vitro cell-based assay was developed to assess the regulation of Na+/K+ ATPase by MBG using HEK293 cells; host or cells: HEK293/hnAChR α3/β4 cells
Nature of the assay: Membrane potential assay: MBG inhibition of membrane repolarization. Type of assay: cell-based. From the text: An in-vitro cell-based assay was developed to assess the regulation of Na+/K+ ATPase by MBG using HEK293 cells. HEK293 has Na+/K+ ATPase activity and contains the α1 isoform (Kochskämper et al. 1997, Biochim. Biophys. Acta 1325: 197-208). […] HEK293 cells expressing human neuronal nicotinic acetylcholine receptors (nAChR) subunits α3 and β4 (Accession # M37981 and #NM_000750), HEK293/hnAChR α3/β4 (Millipore) were used. The nAchR heterodimer is a ligand-gated ion channel that mediates influx of Na+ upon ligand binding (Corringer et al. 2000, Annu. Rev. Pharmacol. Toxicol. 40: 431-458). […] MBG was added to inhibit the repolarization of the cell through its effects on Na^+/K^+ ATPase. Changes in the membrane potential of the cells were monitored using a fluorescent dye whose intensity increases when the cells are depolarized and decreases as the cells are repolarized.
For the bioassay, cells were detached with Enzyme Free Cell Dissociation Buffer (Millipore) seeded into 96-well assay plates at 50,000 cells/well in Opti-MEM™ assay buffer supplemented with 0.1% FBS, penicillin/streptomycin and L-glutamine (known from this point forward as Opti-MEM™), and then incubated at 37° C. in 5% CO2 overnight. […] The plate was then placed into the FLIPR^Tetra® (Molecular Devices) and kinetic readings were collected at 25° C. […]

For `C[C@]12CC[C@H](O)C[C@@]1(O)CC[C@@H]1[C@@H]2CC[C@]2(C)[C@@H](c3ccc(=O)oc3)CC3O[C@@]312` (stereo partly drawn) [MBG, 3β, 5β-dihydroxy-14,15-epoxybufadienolide], the IC50 (IC50 [M] of MBG (@ 100 nM Epibatidine)) was 6.6e-07 M and 4.5e-07 M; the IC50 (read-out: IC50 of MBG) was 7e-07 M and 4.46e-07 M and 6.62e-07 M.
